Reference: the supplement of paper PMC10307832

Experiments:
Experiment in all cases: relative viability (nuclei count vs DMSO), 5 days (fraction); higher = more cells survive
[1] = compound: CC1=C(C(=NN1)C)CC2=C(C3=C(S2)N(C(=O)N(C3=O)C)CC(C)C)C(=O)N4C[C@@H](CO4)O + CC1(C)CCC(c2ccc(Cl)cc2)=C(CN2CCN(c3ccc(C(=O)NS(=O)(=O)c4ccc(N[C@H](CCN5CCOCC5)CSc5ccccc5)c(S(=O)(=O)C(F)(F)F)c4)cc3)CC2)C1 [Navitoclax] (partner 0.5 µM)
In short: (§1)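 Relative viability divides the nuclei count in treated wells by that in vehicle wells. Lung cancer cell lines were seeded in 1536-well plates, dosed by pin tool the next day, and fixed and stained after 5 days in one step with final 0.05% Triton X-100, 1% formaldehyde and 1 ug/ml Hoechst. Dosing was a single drug or a fixed anchor-drug dose plus five library-drug doses (not always all listed) in √10 steps, and values are medians of duplicate plates imaged at 4×.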

[2] = compound: CC1=C(C(=NN1)C)CC2=C(C3=C(S2)N(C(=O)N(C3=O)C)CC(C)C)C(=O)N4C[C@@H](CO4)O + CS(=O)(=O)CCNCc1ccc(-c2ccc3ncnc(Nc4ccc(OCc5cccc(F)c5)c(Cl)c4)c3c2)o1 [Lapatinib] (partner 2 µM)
In short: as §1

IDH-C35 + Luminespib = compound: Cc1ccccc1C(C(=O)NC1CCCCC1)N(C(=O)Cn1ccnc1C)c1cccc(F)c1 [IDH-C35] + CCNC(=O)c1noc(-c2cc(C(C)C)c(O)cc2O)c1-c1ccc(CN2CCOCC2)cc1 [Luminespib] (partner 0.01 µM)
In short: as §1

IDH-C35 + Dasatinib = compound: Cc1ccccc1C(C(=O)NC1CCCCC1)N(C(=O)Cn1ccnc1C)c1cccc(F)c1 [IDH-C35] + Cc1nc(Nc2ncc(C(=O)Nc3c(C)cccc3Cl)s2)cc(N2CCN(CCO)CC2)n1 [Dasatinib] (partner 0.075 µM)
In short: as §1

Cell Line: LXF-289
- relative viability ([1]; first compound 0.0025 µM): 0.885
- relative viability ([1]; first compound 0.007906 µM): 0.904
- relative viability ([1]; first compound 0.025 µM): 0.94
- relative viability ([1]; first compound 0.07906 µM): 0.935
- relative viability ([1]; first compound 0.25 µM): 1
- relative viability ([2]; first compound 0.0025 µM): 0.909
- relative viability ([2]; first compound 0.007906 µM): 0.855
- relative viability ([2]; first compound 0.025 µM): 0.875
- relative viability ([2]; first compound 0.07906 µM): 0.891
- relative viability ([2]; first compound 0.25 µM): 0.975
- relative viability (IDH-C35 + Luminespib; first compound 0.08 µM): 0.512
- relative viability (IDH-C35 + Luminespib; first compound 0.253 µM): 0.631
- relative viability (IDH-C35 + Luminespib; first compound 0.8 µM): 0.654
- relative viability (IDH-C35 + Luminespib; first compound 2.53 µM): 0.697
- relative viability (IDH-C35 + Luminespib; first compound 8 µM): 0.676
- relative viability (IDH-C35 + Dasatinib; first compound 0.08 µM): 0.276
- relative viability (IDH-C35 + Dasatinib; first compound 0.253 µM): 0.25
- relative viability (IDH-C35 + Dasatinib; first compound 0.8 µM): 0.252
- relative viability (IDH-C35 + Dasatinib; first compound 2.53 µM): 0.221
- relative viability (IDH-C35 + Dasatinib; first compound 8 µM): 0.214

Cell Line: PC-14
- relative viability ([1]; first compound 0.0025 µM): 1.02
- relative viability ([1]; first compound 0.007906 µM): 1.09
- relative viability ([1]; first compound 0.025 µM): 1.02
- relative viability ([1]; first compound 0.07906 µM): 1
- relative viability ([1]; first compound 0.25 µM): 1.03
- relative viability ([2]; first compound 0.0025 µM): 0.373
- relative viability ([2]; first compound 0.007906 µM): 0.413
- relative viability ([2]; first compound 0.025 µM): 0.32
- relative viability ([2]; first compound 0.07906 µM): 0.32
- relative viability ([2]; first compound 0.25 µM): 0.359
- relative viability (IDH-C35 + Luminespib; first compound 0.08 µM): 0.148
- relative viability (IDH-C35 + Luminespib; first compound 0.253 µM): 0.154
- relative viability (IDH-C35 + Luminespib; first compound 0.8 µM): 0.177
- relative viability (IDH-C35 + Luminespib; first compound 2.53 µM): 0.243
- relative viability (IDH-C35 + Luminespib; first compound 8 µM): 0.198
- relative viability (IDH-C35 + Dasatinib; first compound 0.08 µM): 0.302
- relative viability (IDH-C35 + Dasatinib; first compound 0.253 µM): 0.277
- relative viability (IDH-C35 + Dasatinib; first compound 0.8 µM): 0.271
- relative viability (IDH-C35 + Dasatinib; first compound 2.53 µM): 0.247
- relative viability (IDH-C35 + Dasatinib; first compound 8 µM): 0.221

Cell Line: NCI-H1666
- relative viability ([1]; first compound 0.0025 µM): 0.969
- relative viability ([1]; first compound 0.007906 µM): 0.954
- relative viability ([1]; first compound 0.025 µM): 1.01
- relative viability ([1]; first compound 0.07906 µM): 1.14
- relative viability ([1]; first compound 0.25 µM): 1.1
- relative viability ([2]; first compound 0.0025 µM): 0.72
- relative viability ([2]; first compound 0.007906 µM): 0.584
- relative viability ([2]; first compound 0.025 µM): 0.734
- relative viability ([2]; first compound 0.07906 µM): 0.786
- relative viability ([2]; first compound 0.25 µM): 0.669
- relative viability (IDH-C35 + Luminespib; first compound 0.08 µM): 0.984
- relative viability (IDH-C35 + Luminespib; first compound 0.253 µM): 0.979
- relative viability (IDH-C35 + Luminespib; first compound 0.8 µM): 1.04
- relative viability (IDH-C35 + Luminespib; first compound 2.53 µM): 1.04
- relative viability (IDH-C35 + Luminespib; first compound 8 µM): 1
- relative viability (IDH-C35 + Dasatinib; first compound 0.08 µM): 0.784
- relative viability (IDH-C35 + Dasatinib; first compound 0.253 µM): 0.807
- relative viability (IDH-C35 + Dasatinib; first compound 0.8 µM): 0.794
- relative viability (IDH-C35 + Dasatinib; first compound 2.53 µM): 0.795
- relative viability (IDH-C35 + Dasatinib; first compound 8 µM): 0.728

Cell Line: NCI-H2085
- relative viability ([1]; first compound 0.0025 µM): 1.22
- relative viability ([1]; first compound 0.007906 µM): 1.12
- relative viability ([1]; first compound 0.025 µM): 1.06
- relative viability ([1]; first compound 0.07906 µM): 1.12
- relative viability ([1]; first compound 0.25 µM): 1.22
- relative viability ([2]; first compound 0.0025 µM): 0.706
- relative viability ([2]; first compound 0.007906 µM): 0.767
- relative viability ([2]; first compound 0.025 µM): 0.598
- relative viability ([2]; first compound 0.07906 µM): 0.72
- relative viability ([2]; first compound 0.25 µM): 0.595
- relative viability (IDH-C35 + Luminespib; first compound 0.08 µM): 0.352
- relative viability (IDH-C35 + Luminespib; first compound 0.253 µM): 0.458
- relative viability (IDH-C35 + Luminespib; first compound 0.8 µM): 0.519
- relative viability (IDH-C35 + Luminespib; first compound 2.53 µM): 0.428
- relative viability (IDH-C35 + Luminespib; first compound 8 µM): 0.416
- relative viability (IDH-C35 + Dasatinib; first compound 0.08 µM): 0.275
- relative viability (IDH-C35 + Dasatinib; first compound 0.253 µM): 0.261
- relative viability (IDH-C35 + Dasatinib; first compound 0.8 µM): 0.223
- relative viability (IDH-C35 + Dasatinib; first compound 2.53 µM): 0.277
- relative viability (IDH-C35 + Dasatinib; first compound 8 µM): 0.266
